In brackets after ≈: the same amount, converted by molar mass. Like-named read-outs stand apart in the source and are kept apart here.
Legend:
JB6 = test: Cell proliferation inhibition, ALCL line JB6; assay type: cell-based; details: Example 4, most sensitive cell lines, read-out: Proliferation IC50 JB6
Source text: (§1) Cell proliferation inhibition assays were run for compound (II) with the five target NPM-ALK-dependent ALCL cell lines (Karpas 299, SuDHL-1, JB6, SupM2, UConn) and 12 unrelated cell lines (HEK293, CHO-K1, MCF7, HepG2, H292, H520, H1581, H596, H522, CHA-GO-K1, UMC-11, SK-MES1). […] The pronounced target cell-killing effect is also observed (molecular mechanisms to be determined).

Karpas299 = test: Cell proliferation inhibition, ALCL line Karpas299; assay type: cell-based; details: Homo sapiens, KARPAS-299; Example 4, most sensitive cell lines; read-out: Proliferation IC50 Karpas299
How it was run: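 NPM-ALK-positive Karpas-299 cells (2×10^4 per well) were treated with compound at final concentrations of 25 to 0.78125 μM, with DMSO-only controls. Proliferation and viability were read colorimetrically by XTT reduction to formazan.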

UConn = test: Cell proliferation inhibition, ALCL line UConn; assay type: cell-based; details: Example 4, least sensitive line; read-out: Proliferation IC50 UConn
Source text: as §1

10 Ser-Thr kinases = test: Single point radiometric profiling on Ser-Thr kinases (Upstate/Millipore); assay type: biochemical; details: 50 nM compound
Description: To evaluate selectivity versus other kinases, inhibition of various kinases by compound (II) was determined. In particular, IC50s for TrkA, Jak2, Axl tyrosine kinases were determined using ADP Hunter (DiscoverX) kinase assay. Single point profiling of compound (II) on 50 human tyrosine kinases and 10 Ser-Thr kinases was done at Upstate/Millipore by radiometric assay. […] The subset of the 520 kinases in the human kinome that were tested was strategically selected to cover most of the therapeutically relevant tyrosine kinases and to represent major branches of serine-threonine kinases.

CYP2C9 = target: T1, CYP2C9 (Homo sapiens, UniProt P11712); test: CYP2C9 Inhibition (recombinant, MFC substrate); assay type: in vitro ADME
T1 construct: purchased Cerep (contract assay, ADMET Study 13170)
T1 sequence (P11712 whole entry): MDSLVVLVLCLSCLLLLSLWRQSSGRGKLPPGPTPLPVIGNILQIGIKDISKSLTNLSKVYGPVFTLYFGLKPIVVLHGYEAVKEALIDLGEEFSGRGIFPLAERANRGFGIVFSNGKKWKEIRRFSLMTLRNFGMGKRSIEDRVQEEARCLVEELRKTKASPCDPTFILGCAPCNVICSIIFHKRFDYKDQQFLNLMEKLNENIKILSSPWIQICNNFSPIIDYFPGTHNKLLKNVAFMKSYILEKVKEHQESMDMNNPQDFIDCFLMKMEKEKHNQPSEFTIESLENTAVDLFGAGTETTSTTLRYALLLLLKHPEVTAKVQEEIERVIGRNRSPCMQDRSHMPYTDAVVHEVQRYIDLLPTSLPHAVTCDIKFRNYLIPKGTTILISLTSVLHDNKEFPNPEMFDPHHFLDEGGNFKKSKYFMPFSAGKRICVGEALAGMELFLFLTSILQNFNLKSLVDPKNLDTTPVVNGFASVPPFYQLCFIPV

CYP2D6 = target: T2, CYP2D6 (Homo sapiens, UniProt P10635); test: CYP2D6 Inhibition (recombinant, MFC substrate); assay type: in vitro ADME
T2 construct: purchased Cerep (contract assay, ADMET Study 13170)
T2 sequence (P10635 whole entry): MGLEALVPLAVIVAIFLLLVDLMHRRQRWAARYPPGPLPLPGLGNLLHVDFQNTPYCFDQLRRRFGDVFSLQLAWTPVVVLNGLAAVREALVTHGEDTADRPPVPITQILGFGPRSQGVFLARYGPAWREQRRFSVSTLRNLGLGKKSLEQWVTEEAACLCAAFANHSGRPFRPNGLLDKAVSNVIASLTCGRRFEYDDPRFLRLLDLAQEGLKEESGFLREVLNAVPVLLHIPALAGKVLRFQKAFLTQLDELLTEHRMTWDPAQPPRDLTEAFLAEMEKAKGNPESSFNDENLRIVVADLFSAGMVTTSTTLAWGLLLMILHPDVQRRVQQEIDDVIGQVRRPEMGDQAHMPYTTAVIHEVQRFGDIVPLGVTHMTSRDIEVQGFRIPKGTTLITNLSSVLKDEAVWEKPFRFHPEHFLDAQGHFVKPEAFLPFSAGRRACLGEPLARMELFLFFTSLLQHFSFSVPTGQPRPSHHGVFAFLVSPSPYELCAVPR

hERG = hERG (Homo sapiens, UniProt Q12809); test: hERG standard patch clamp in HEK293 (Cerep ADMET Study 13170); assay type: cell-based; details: 1 μM
Sequence of hERG (Q12809 whole entry): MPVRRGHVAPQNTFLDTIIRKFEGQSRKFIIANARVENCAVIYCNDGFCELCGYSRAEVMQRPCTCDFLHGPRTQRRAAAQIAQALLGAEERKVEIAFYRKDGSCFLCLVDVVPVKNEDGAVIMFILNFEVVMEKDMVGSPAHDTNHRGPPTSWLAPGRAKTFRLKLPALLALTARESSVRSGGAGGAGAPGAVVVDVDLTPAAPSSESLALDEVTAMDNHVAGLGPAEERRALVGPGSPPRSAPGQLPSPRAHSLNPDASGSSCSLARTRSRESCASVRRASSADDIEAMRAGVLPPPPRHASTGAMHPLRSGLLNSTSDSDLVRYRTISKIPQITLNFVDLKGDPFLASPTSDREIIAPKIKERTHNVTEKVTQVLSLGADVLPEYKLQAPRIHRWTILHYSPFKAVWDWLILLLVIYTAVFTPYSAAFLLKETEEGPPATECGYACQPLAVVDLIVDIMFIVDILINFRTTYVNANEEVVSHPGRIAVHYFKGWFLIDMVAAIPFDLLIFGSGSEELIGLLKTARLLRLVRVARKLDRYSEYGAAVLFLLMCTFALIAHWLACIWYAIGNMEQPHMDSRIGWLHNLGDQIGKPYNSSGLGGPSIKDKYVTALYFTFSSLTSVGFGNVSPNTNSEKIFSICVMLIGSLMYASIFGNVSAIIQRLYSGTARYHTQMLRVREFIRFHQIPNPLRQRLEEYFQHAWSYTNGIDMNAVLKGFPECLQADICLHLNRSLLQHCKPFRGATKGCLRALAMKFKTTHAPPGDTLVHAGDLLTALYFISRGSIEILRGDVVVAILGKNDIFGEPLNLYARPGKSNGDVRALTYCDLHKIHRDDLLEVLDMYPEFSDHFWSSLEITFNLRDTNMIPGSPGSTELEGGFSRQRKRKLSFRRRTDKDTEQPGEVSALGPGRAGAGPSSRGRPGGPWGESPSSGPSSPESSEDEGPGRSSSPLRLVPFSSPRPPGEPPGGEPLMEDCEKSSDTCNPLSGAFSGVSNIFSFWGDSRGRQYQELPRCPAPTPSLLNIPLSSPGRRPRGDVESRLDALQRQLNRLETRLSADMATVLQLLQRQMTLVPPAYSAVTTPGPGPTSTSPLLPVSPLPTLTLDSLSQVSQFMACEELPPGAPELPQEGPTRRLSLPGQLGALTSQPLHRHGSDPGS
Description: The cardiac potassium channel, hERG, is responsible for the rapid delayed rectifier current (IKr) in the human ventricle. Inhibition of IKr is the most common cause of cardiac action potential prolongation by noncardiac drugs. Increased action potential duration causes prolongation of the QT interval that has been associated with a dangerous ventricular arrhythmia, torsade de pointer.
Compound (II) was initially tested at 1 μM concentration using a standard patch clamp protocol (Cerep ADMET Study 13170). The hERG channel was expressed in a human embryonic kidney (HEK293) cell line that lacks endogenous hERG channels. […] We have retested compound (II) in hERG assay in a range of lower concentrations to estimate IC50 of hERG inhibition more precisely (Qpatch 16 automated whole-cell patch clamp protocol in CHO-K1 cell line stably expressing hERG, Cerep hERG Study 13292). […] This kind of potency in hERG inhibition should not represent a significant clinical problem since the high degree of hERG inhibition would occur only at the compound concentrations above the expected therapeutic levels.

[1] = Aqueous Solubility (PBS, pH 7.4); assay type: physicochemical; details: for solubility: pH 7.4, PBS
[2] = Caco-2 (TC7) A-B Permeability test (pH 6.5/7.4); details: human
ALK = ALK (Homo sapiens, UniProt Q9UM73); test: Biochemical ALK inhibition (ADP Hunter, radiometric, Z-lyte); parameters: purchased DiscoveRx (ADP Hunter kit); Upstate/Millipore; Invitrogen
Sequence of ALK (Q9UM73 19-1620): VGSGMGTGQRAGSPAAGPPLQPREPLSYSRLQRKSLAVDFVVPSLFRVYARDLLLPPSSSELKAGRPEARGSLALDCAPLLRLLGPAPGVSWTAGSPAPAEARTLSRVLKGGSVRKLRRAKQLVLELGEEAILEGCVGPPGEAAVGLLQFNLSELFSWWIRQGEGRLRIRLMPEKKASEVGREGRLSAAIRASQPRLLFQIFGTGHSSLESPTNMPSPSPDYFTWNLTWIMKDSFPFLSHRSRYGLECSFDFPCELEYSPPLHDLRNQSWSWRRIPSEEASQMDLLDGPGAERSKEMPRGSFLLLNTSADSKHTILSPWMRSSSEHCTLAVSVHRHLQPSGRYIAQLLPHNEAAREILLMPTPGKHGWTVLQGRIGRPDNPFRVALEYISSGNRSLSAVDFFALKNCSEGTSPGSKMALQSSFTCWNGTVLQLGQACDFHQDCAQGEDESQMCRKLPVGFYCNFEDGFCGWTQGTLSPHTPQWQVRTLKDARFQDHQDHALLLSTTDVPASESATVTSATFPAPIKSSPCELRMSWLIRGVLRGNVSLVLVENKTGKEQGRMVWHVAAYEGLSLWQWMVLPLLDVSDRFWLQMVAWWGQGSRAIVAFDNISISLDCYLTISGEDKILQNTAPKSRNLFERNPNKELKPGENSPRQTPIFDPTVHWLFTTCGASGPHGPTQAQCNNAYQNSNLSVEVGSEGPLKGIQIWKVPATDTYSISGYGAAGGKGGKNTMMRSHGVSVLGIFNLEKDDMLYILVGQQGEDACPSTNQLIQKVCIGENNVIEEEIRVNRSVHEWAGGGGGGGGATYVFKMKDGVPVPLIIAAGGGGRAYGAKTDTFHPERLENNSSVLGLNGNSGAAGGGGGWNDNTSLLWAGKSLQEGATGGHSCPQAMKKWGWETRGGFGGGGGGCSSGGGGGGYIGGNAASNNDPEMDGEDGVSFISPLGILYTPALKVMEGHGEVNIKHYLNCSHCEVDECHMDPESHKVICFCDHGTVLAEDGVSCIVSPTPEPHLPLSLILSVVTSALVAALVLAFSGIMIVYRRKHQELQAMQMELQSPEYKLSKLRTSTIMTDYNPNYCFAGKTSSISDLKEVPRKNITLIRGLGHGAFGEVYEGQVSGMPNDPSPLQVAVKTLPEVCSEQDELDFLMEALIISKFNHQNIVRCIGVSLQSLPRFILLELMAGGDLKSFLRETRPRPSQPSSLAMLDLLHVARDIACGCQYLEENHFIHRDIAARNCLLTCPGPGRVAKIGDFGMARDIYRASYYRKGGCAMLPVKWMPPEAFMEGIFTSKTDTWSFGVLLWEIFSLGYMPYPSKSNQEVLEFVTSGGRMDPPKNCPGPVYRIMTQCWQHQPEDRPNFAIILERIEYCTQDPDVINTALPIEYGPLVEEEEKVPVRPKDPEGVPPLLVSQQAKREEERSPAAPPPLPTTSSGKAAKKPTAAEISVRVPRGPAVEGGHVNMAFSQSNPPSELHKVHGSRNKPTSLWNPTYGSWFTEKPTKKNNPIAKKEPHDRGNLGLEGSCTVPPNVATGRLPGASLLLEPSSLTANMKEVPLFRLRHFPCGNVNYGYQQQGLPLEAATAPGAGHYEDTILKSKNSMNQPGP
Description: Compound (II) (also labeled as CRL241 in some of the figures) was tested using several diverse assay technologies utilizing common assay readouts such as ADP generation detection and FRET or radiolabel-based measurement of phosphate incorporation in the substrate.
Biochemical potency of ALK inhibition (IC50) for compound (II) was determined in multiple experiments using a commercial ADP detection assay (ADP Hunter, DiscoveRx), and in radiometric (Upstate/Millipore) or FRET based fluorimetric (Z-lyte, Invitrogen) assays.

Cc1ccc(F)cc1C[C@H](C)Nc1cc[nH]c(=O)c1-c1nc2cc3c(cc2[nH]1)C(=O)N(CCN1CCCC1)C3 [compound (II)]
IC50 (JB6): 5 to 10 nM
IC50 (Karpas299): 5 to 10 nM
IC50 (UConn): 30 nM
Inhibition of 10 structurally diverse Ser-Thr kinases (10 Ser-Thr kinases): did not cause any significant inhibition
activity at 1 µM (CYP2C9; human, recombinant CYP2C9, probe MFC, 1.0E−06 M, Table 5B individual results, read-out: CYP2C9 % Inhibition of Control Values, 1st/2nd/3rd): 75.8%
activity at 5 µM (CYP2C9; human, recombinant CYP2C9, probe MFC, 5.0E−06 M, Table 5B individual results, read-out: CYP2C9 % Inhibition of Control Values, 1st/2nd/3rd): 63.8%
inhibition at 1 µM (CYP2C9; human, recombinant CYP2C9, probe MFC, 1.0E−06 M, read-out: CYP2C9 % Inhibition of Control Values): 20%
inhibition at 5 µM (CYP2C9; human, recombinant CYP2C9, probe MFC, 5.0E−06 M, read-out: CYP2C9 % Inhibition of Control Values): 41%
IC50 (CYP2C9; read-out: approximate IC50 CYP2C9): > 5000 nM
CYP2D6 inhibition (CYP2D6; 1 μM and 5 μM): No inhibition was detected
activity at 1 µM (CYP2D6; human, recombinant CYP2D6, probe MFC, 1.0E−06 M, Table 5B individual results, read-out: CYP2D6 % Inhibition of Control Values, 1st/2nd/3rd): 101%
activity at 5 µM (CYP2D6; human, recombinant CYP2D6, probe MFC, 5.0E−06 M, Table 5B individual results, read-out: CYP2D6 % Inhibition of Control Values, 1st/2nd/3rd): 84.9%
inhibition at 1 µM (CYP2D6; human, recombinant CYP2D6, probe MFC, 1.0E−06 M, read-out: CYP2D6 % Inhibition of Control Values): 2%
inhibition at 5 µM (CYP2D6; human, recombinant CYP2D6, probe MFC, 5.0E−06 M, read-out: CYP2D6 % Inhibition of Control Values): 16%
% inhibition of tail current (hERG): 50.4%
Solubility 1st/2nd ([1]; pH 7.4, 2.0E−04 M, individual data, listed as CRL241): 33.81 μm
solubility ([1]; pH 7.4, 2.0E−04 M, Tables 9C, 9D, read-out: Solubility Mean): 33.9 µM (≈ 17.9 µg/mL)
solubility ([1]; pH 7.4, 2.0E−04 M, individual data, read-out: Solubility 1st/2nd): 34 µM (≈ 18 µg/mL)
solubility at 24 h ([1]; pH 7.4, test concentration 2.0E−04 M, 24 hours, RT): 34 µM (≈ 18 µg/mL)
Papp A→B at 10 µM ([2]; Caco-2, pH 6.5, Caco-2 (TC7) A-B permeability coefficient, pH 6.5/7.4, 10 μM compound): 0.4 ×10⁻⁶ cm/s
recovery at 10 µM ([2]; Caco-2, pH 6.5, Caco-2 recovery, pH 6.5/7.4, 10 μM compound): 49%
Papp A→B at 10 µM ([2]; Caco-2, pH 6.5, Mean Permeability, A-B Permeability (TC7, pH 6.5/7.4), test concentration 1.0E−05 M, mean of n = 2): 0.4 ×10⁻⁶ cm/s
recovery at 10 µM ([2]; Caco-2, pH 6.5, Mean Recovery, A-B Permeability (TC7, pH 6.5/7.4), test concentration 1.0E−05 M, mean of n = 2): 49%
Papp A→B at 10 µM ([2]; Caco-2, pH 6.5, Permeability 1st, A-B Permeability (TC7, pH 6.5/7.4), test concentration 1.0E−05 M, 1st replicate): 0.41 ×10⁻⁶ cm/s
Papp A→B at 10 µM ([2]; Caco-2, pH 6.5, Permeability 2nd, A-B Permeability (TC7, pH 6.5/7.4), test concentration 1.0E−05 M, 2nd replicate): 0.44 ×10⁻⁶ cm/s
recovery at 10 µM ([2]; Caco-2, pH 6.5, Present Recovery 1st, A-B Permeability (TC7, pH 6.5/7.4), test concentration 1.0E−05 M, 1st replicate): 50%
recovery at 10 µM ([2]; Caco-2, pH 6.5, Present Recovery 2nd, A-B Permeability (TC7, pH 6.5/7.4), test concentration 1.0E−05 M, 2nd replicate): 47%
IC50 (ALK; ADP Hunter, radiometric and Z-lyte assays, 100 or 200 μM ATP): 9 to 11 nM
Selectivity for ALK versus the related IR and IGF1R (ALK; radiometric assay (Upstate/Millipore)): 10-15 fold

Reference: patent US9249147B2, “Tyrosine kinase inhibitors” (CHEMBRIDGE CORPORATION, priority 2008, dated 2016)
